Legend:
Format in all cases: in vivo
[1] = test system: Echinochloa crusgaffi (ECHCG); assay: Post-emergence biological efficacy, glasshouse, 500 or 1000 g/ha, evaluated after 13 days (100=total damage to plant; 0=no damage to plant); conditions: rate 1,000 g/ha; for pest or weed control at 1000 g/ha: Echinochloa, 312 h, read-out: Percentage damage caused to weed species, post-emergence, ECHCG
Protocol: (§1) Seeds of Alopecurus myosuroides (ALOMY), Setaria faberi (SETFA), Echinochloa […]), Solanum nigrum (SOLNI), Amaranthus retroflexus (AMARE) and Ipomoea hederaceae (IPOHE) were sown in standard soil in pots. […] The test plants were then grown on under controlled conditions in a glasshouse (at 24/16° C., day/night; 14 hours light; 65% humidity) and watered twice daily. […]

[2] = test system: Alopecurus myosuroides (ALOMY); assay: as above; conditions: rate 1,000 g/ha; for pest or weed control at 1000 g/ha: Alopecurus myosuroides, 312 h, read-out: Percentage damage caused to weed species, post-emergence, ALOMY
Protocol: as §1

[3] = test system: Amaranthus retroflexus (AMARE); assay: as above; conditions: rate 1,000 g/ha; for pest or weed control at 1000 g/ha: Amaranthus retroflexus, 312 h, read-out: Percentage damage caused to weed species, post-emergence, AMARE
Protocol: as §1

[4] = test system: Setaria faberi (SETFA); assay: as above; conditions: rate 1,000 g/ha; for pest or weed control at 1000 g/ha: Setaria faberi, 312 h, read-out: Percentage damage caused to weed species, post-emergence, SETFA
Protocol: as §1

[5] = test system: Solanum nigrum (SOLNI); assay: as above; conditions: rate 1,000 g/ha; for pest or weed control at 1000 g/ha: Solanum nigrum, 312 h, read-out: Percentage damage caused to weed species, post-emergence, SOLNI
Protocol: as §1

[6] = test system: Ipomoea hederaceae (IPOHE); assay: as above; conditions: rate 1,000 g/ha; for pest or weed control at 1000 g/ha: Ipomoea, 312 h, read-out: Percentage damage caused to weed species, post-emergence, IPOHE
Protocol: as §1

[7] = test system: Alopecurus myosuroides (ALOMY); assay: Pre-emergence biological efficacy, glasshouse, 1000 g/ha, evaluated after 13 days (100=total damage to plant; 0=no damage to plant); conditions: rate 1,000 g/ha; for pest or weed control at 1000 g/ha: Alopecurus myosuroides, 312 h, read-out: Percentage damage caused to weed species, pre-emergence, ALOMY
Protocol: (§2) Seeds of Alopecurus myosuroides (ALOMY), Setaria faberi (SETFA), Echinochloa crus-galli (ECHCG), Solanum nigrum (SOLNI), Amaranthus retroflexus (AMARE) and Ipomoea hederaceae (IPOHE) were sown in standard soil in pots. […] The test plants were then grown under controlled conditions in the glasshouse (at 24/16° C., day/night; 14 hours light; 65% humidity) and watered twice daily. […]

[8] = test system: Amaranthus retroflexus (AMARE); assay: as above; conditions: rate 1,000 g/ha; for pest or weed control at 1000 g/ha: Amaranthus retroflexus, 312 h, read-out: Percentage damage caused to weed species, pre-emergence, AMARE
Protocol: as §2

[9] = test system: Echinochloa crus-galli (ECHCG); assay: as above; conditions: rate 1,000 g/ha; for pest or weed control at 1000 g/ha: Echinochloa crus-galli, 312 h, read-out: Percentage damage caused to weed species, pre-emergence, ECHCG
Protocol: as §2

[10] = test system: Setaria faberi (SETFA); assay: as above; conditions: rate 1,000 g/ha; for pest or weed control at 1000 g/ha: Setaria faberi, 312 h, read-out: Percentage damage caused to weed species, pre-emergence, SETFA
Protocol: as §2

[11] = test system: Solanum nigrum (SOLNI); assay: as above; conditions: rate 1,000 g/ha; for pest or weed control at 1000 g/ha: Solanum nigrum, 312 h, read-out: Percentage damage caused to weed species, pre-emergence, SOLNI
Protocol: as §2

[12] = test system: Ipomoea hederaceae (IPOHE); assay: as above; conditions: rate 1,000 g/ha; for pest or weed control at 1000 g/ha: Ipomoea, 312 h, read-out: Percentage damage caused to weed species, pre-emergence, IPOHE
Protocol: as §2

| Compound | pest or weed control at 1000 g/ha [1] | pest or weed control at 1000 g/ha [2] | pest or weed control at 1000 g/ha [3] | pest or weed control at 1000 g/ha [4] | pest or weed control at 1000 g/ha [5] | pest or weed control at 1000 g/ha [6] | pest or weed control at 1000 g/ha [7] | pest or weed control at 1000 g/ha [8] | pest or weed control at 1000 g/ha [9] | pest or weed control at 1000 g/ha [10] | pest or weed control at 1000 g/ha [11] | pest or weed control at 1000 g/ha [12] | also measured |
| --- | --- | --- | --- | --- | --- | --- | --- | --- | --- | --- | --- | --- | --- |
| COc1c(Cl)ccc(-c2nc(C(=O)OCc3ccco3)c3c(C)c[nH]c3n2)c1F [Compound 1-87, 2-(4-Chloro-2-fluoro-3-methoxyphenyl)-4-(2-furanyl-methoxycarbonyl)-5-methy-7H-pyrrolo[2,3-d]pyrimidine] | – | – | – | – | – | – | – | – | – | – | – | – | Percentage damage caused to weed species, post-emergence, ECHCG [1]: 0%; Percentage damage caused to weed species, post-emergence, ALOMY [2]: 0%; Percentage damage caused to weed species, post-emergence, AMARE [3]: 100%; Percentage damage caused to weed species, post-emergence, SETFA [4]: 10%; Percentage damage caused to weed species, post-emergence, SOLNI [5]: 90%; Percentage damage caused to weed species, post-emergence, IPOHE [6]: 50%; Percentage damage caused to weed species, pre-emergence, ALOMY [7]: 0%; Percentage damage caused to weed species, pre-emergence, AMARE [8]: 10%; Percentage damage caused to weed species, pre-emergence, ECHCG [9]: 0%; Percentage damage caused to weed species, pre-emergence, SETFA [10]: 0%; Percentage damage caused to weed species, pre-emergence, SOLNI [11]: 20%; Percentage damage caused to weed species, pre-emergence, IPOHE [12]: 10% |
| COc1c(Cl)ccc(-c2nc(C(=O)OCC3CCCO3)c3c(C)c[nH]c3n2)c1F (stereo not drawn) [Compound 1-88, 2-(4-Chloro-2-fluoro-3-methoxyphenyl)-5-methyl-4-(tetrahydrofuran-2-yl-methoxycarbonyl)-7H-pyrrolo[2,3-d]pyrimidine] | 10% | 10% | 50% | 40% | 70% | 50% | 0% | 10% | 10% | 0% | 20% | 10% | – |
| COC(=O)c1nc(-c2ccc(Cl)c(OC)c2F)nc2[nH]c(-c3ccccc3)c(C)c12 [Compound 1-108, 2-(4-Chloro-2-fluoro-3-methoxyphenyl)-4-methoxycarbonyl-5-methyl-6-phenyl-7H-pyrrolo[2,3-d]pyrimidine] | 0% | 0% | 0% | 0% | 30% | 50% | 0% | 0% | 0% | 0% | 0% | 0% | – |
| COC(=O)c1nc(-c2ccc(Cl)c(N(C)C)c2F)nc2[nH]cc(C)c12 [Compound 1-116, 2-(4-Chloro-3-dimethylamino-2-fluorophenyl)-4-methoxycarbonyl-5-methyl-7H-pyrrolo[2,3-d]pyrimidine] | 0% | 0% | 50% | 20% | 40% | 50% | 0% | 0% | 0% | 0% | 0% | 0% | – |
| COC(=O)c1nc(-c2ccc(Cl)c(N(C)C)c2F)nc2[nH]c(C)cc12 [Compound 1-118, 2-(4-chloro-3-dimethylamino-2-fluorophenyl)-4-methoxycarbonyl-6-methyl-7H-pyrrolo[2,3-d]pyrimidine] | 50% | 10% | 100% | 70% | 80% | 50% | 0% | 40% | 10% | 20% | 70% | 40% | – |
